The source of these data is US20250360505A1, “MICRO-BIOELECTROCHEMICAL CELL DEVICES AND METHODS OF DETECTING ELECTRON FLOWS” (Washington University, priority 2019, published 2025).

This assay relates to Rhodopseudomonas palustris TIE-1 wild-type biofilms. The assay is described as follows: μ-BEC current density measurement of extracellular electron uptake (EEU) by surface-attached biofilms treated with photosynthetic ETC inhibitors. The conditions noted are these: working electrode poised at +100 mV vs. SHE, inhibitor concentration not given. The format is cell-based.
Where [1] appears, read: illuminated (phototrophic) conditions.

In the case of `N#CC(C#N)=NNc1cccc(Cl)c1` [CCCP, carbonyl cyanide m-chlorophenyl hydrazone], the Current density is, setting by setting: (dark conditions) −18.4±14.0 nA cm^−2; under setting [1], 21.2±9.13 nA cm^−2.
In the same order, the values of antimycin A are −3.46±1.80 nA cm^−2 and 12.46±1.34 nA cm^−2.
